Columns and labels:
Conditions in all cases: 72 h
Caco-2 [1] = assay: drug sensitivity score (DSS) for viability; higher = more toxic; extreme values may be limits of the assay
Calu-3 [2] = assay: as above
HepG2 [3] = assay: as above
Vero E6 [4] = assay: as above
U2OS [5] = assay: as above
Caco-2 [6] = assay: relative viability EC50 (midpoint between 100% and the lowest measured viability); higher = less toxic
Calu-3 [7] = assay: as above
Vero E6 [8] = assay: as above
U2OS [9] = assay: as above
Caco-2 [10] = assay: cell viability relative to DMSO; higher = less toxic
Calu-3 [11] = assay: as above
HepG2 [12] = assay: as above
Vero E6 [13] = assay: as above
U2OS [14] = assay: as above

Row | Structure (SMILES) | drug sensitivity score (Caco-2 [1]) | drug sensitivity score (Calu-3 [2]) | drug sensitivity score (HepG2 [3]) | drug sensitivity score (Vero E6 [4]) | drug sensitivity score (U2OS [5]) | relative viability EC50 (Caco-2 [6]) [µM] | relative viability EC50 (Calu-3 [7]) [µM] | relative viability EC50 (Vero E6 [8]) [µM] | relative viability EC50 (U2OS [9]) [µM] | cell viability (Caco-2 [10]; 1 nM) [%] | cell viability (Caco-2 [10]; 10 nM) [%] | cell viability (Caco-2 [10]; 100 nM) [%] | cell viability (Caco-2 [10]; 1000 nM) [%] | cell viability (Caco-2 [10]; 10000 nM) [%] | cell viability (Calu-3 [11]; 1 nM) [%] | cell viability (Calu-3 [11]; 10 nM) [%] | cell viability (Calu-3 [11]; 100 nM) [%] | cell viability (Calu-3 [11]; 1000 nM) [%] | cell viability (Calu-3 [11]; 10000 nM) [%] | cell viability (HepG2 [12]; 1 nM) [%] | cell viability (HepG2 [12]; 10 nM) [%] | cell viability (HepG2 [12]; 100 nM) [%] | cell viability (HepG2 [12]; 1000 nM) [%] | cell viability (HepG2 [12]; 10000 nM) [%] | cell viability (Vero E6 [13]; 1 nM) [%] | cell viability (Vero E6 [13]; 10 nM) [%] | cell viability (Vero E6 [13]; 100 nM) [%] | cell viability (Vero E6 [13]; 1000 nM) [%] | cell viability (Vero E6 [13]; 10000 nM) [%] | cell viability (U2OS [14]; 1 nM) [%] | cell viability (U2OS [14]; 10 nM) [%] | cell viability (U2OS [14]; 100 nM) [%] | cell viability (U2OS [14]; 1000 nM) [%] | cell viability (U2OS [14]; 10000 nM) [%]
1 | CNC(=O)[C@H]1O[C@@H](n2cnc3c(NCc4cccc(I)c4)ncnc32)[C@H](O)[C@@H]1O [IB-MECA] | 0 | 0.1 | 3.3 | 0 | 0 | > 10 | > 10 | > 10 | > 10 | 112 | 96.2 | 99.8 | 105 | 93.3 | 96.3 | 98.3 | 93.4 | 109 | 85.3 | 107 | 68.7 | 98.3 | 68.8 | 88.8 | 103 | 97.1 | 99.8 | 97 | 102 | 101 | 105 | 102 | 106 | 95.8
2 | CC(C)(C(=O)O)c1ccc(C(O)CCCN2CCC(C(O)(c3ccccc3)c3ccccc3)CC2)cc1 (stereo not drawn) [fexofenadine] | – | 0 | – | 0 | 0 | – | – | – | – | – | – | – | – | – | – | – | – | – | – | – | – | – | – | – | – | – | – | – | – | – | – | – | – | –
3 | CNC(=O)COC(=O)NCCC1CCN(c2cccc(C)n2)CC1 [SA-47] | 0 | 0 | – | 0 | 0 | > 10 | > 10 | > 10 | > 10 | 90.7 | 101 | 97.7 | 99.3 | 94 | 98.4 | 101 | 105 | 103 | 105 | – | – | – | – | – | 85.7 | 97.6 | 90.7 | 92.7 | 110 | 92.8 | 101 | 103 | 97.7 | 99.2
4 | COc1cc2/c(=N/c3ccc(Br)cc3F)nc[nH]c2cc1OCC1CCN(C)CC1 [vandetanib] | 3.3 | 8.7 | 1.5 | 8.2 | – | – | 1.24 | 1.3 | – | 109 | 105 | 86 | 88.4 | 57.2 | 101 | 95.3 | 85.7 | 66.2 | 13.4 | 113 | 106 | 110 | 96.7 | 74 | 104 | 100 | 98.3 | 72.9 | 20.6 | – | – | – | – | –
5 | Nc1nc(NCCNc2ncc(-n3ccnc3)c(-c3ccc(Cl)cc3Cl)n2)ccc1[N+](=O)[O-] | 0 | 0 | – | 0 | 0 | > 10 | > 10 | > 10 | > 10 | 96.7 | 99.9 | 100 | 111 | 111 | 96.3 | 98.1 | 104 | 111 | 112 | – | – | – | – | – | 96.1 | 98 | 94.2 | 97.1 | 106 | 96.9 | 101 | 96.7 | 103 | 110
6 | CC(=O)[C@@]12O[C@](C)(c3ccccc3)O[C@@H]1C[C@H]1[C@@H]3CCC4=CC(=O)CC[C@]4(C)[C@H]3CC[C@@]12C [algestone-acetophenide] | 0.7 | 0 | 1 | 0 | 0 | > 10 | > 10 | > 10 | > 10 | 104 | 94.2 | 97.5 | 100 | 78.5 | 105 | 100 | 96.3 | 109 | 86.4 | 98.3 | 108 | 102 | 103 | 71.7 | 101 | 96.6 | 87.5 | 92.3 | 102 | 99.7 | 95.2 | 99.3 | 98.4 | 91.8
7 | CN(C)CCN(Cc1cccs1)c1ccccn1 [methapyrilene] | 0 | 0.3 | – | 0 | 0 | > 10 | > 10 | > 10 | > 10 | 103 | 95.2 | 94.2 | 104 | 107 | 101 | 101 | 92.6 | 89.3 | 89.7 | – | – | – | – | – | 98.1 | 99.9 | 101 | 96.4 | 96.3 | 102 | 102 | 97.9 | 102 | 96.7
8 | Cn1c(=O)c2c(ncn2CCOC(=O)C(C)(C)Oc2ccc(Cl)cc2)n(C)c1=O [etofylline-clofibrate] | 0.3 | 0 | – | 0 | 0 | > 10 | > 10 | > 10 | > 10 | 98 | 100 | 89.4 | 91.4 | 93.9 | 96.1 | 98.9 | 93.2 | 94.3 | 89.5 | – | – | – | – | – | 92.8 | 109 | 91.6 | 96.1 | 104 | 98 | 91.9 | 101 | 95.9 | 97.3
9 | CCOC(=O)c1ccc(OCCC2CCN(c3ccc(C)nn3)CC2)cc1 [pirodavir] | – | 0 | 0 | 0 | 0 | – | – | – | – | – | – | – | – | – | – | – | – | – | – | – | – | – | – | – | – | – | – | – | – | – | – | – | – | –
10 | CC/C(=C(\c1ccccc1)c1ccc(OCCN(C)C)cc1)c1ccccc1 [tamoxifen] | – | 4.2 | 0.9 | 3.4 | 0 | – | – | – | > 10 | – | – | – | – | – | 103 | 95.5 | 94.7 | 86 | 52.7 | 105 | 106 | 105 | 102 | 73.3 | 98.9 | 90 | 93.3 | 86.9 | 58.9 | 94.6 | 102 | 93 | 97.2 | 87.6
11 | Nc1ncn([C@H]2C[C@H](O)[C@@H](CO)O2)c(=O)n1 [decitabine] | 1.7 | 0 | 6.6 | 0 | 0 | > 10 | > 10 | > 10 | > 10 | 97.2 | 88.3 | 82.2 | 89.4 | 88.4 | 109 | 105 | 101 | 107 | 93.5 | 95.8 | 98.6 | 82.6 | 71.9 | 69.8 | 103 | 102 | 95.1 | 93 | 93.2 | 102 | 102 | 99.9 | 100 | 101
12 | Clc1cccc(Cl)c1NC1=NCCN1 [clonidine] | 0 | 2.3 | – | 0 | 0 | > 10 | > 10 | > 10 | > 10 | 95.3 | 95.6 | 96.1 | 84.1 | 94 | 98.4 | 87.9 | 90.4 | 87 | 88.8 | – | – | – | – | – | 95.6 | 101 | 102 | 99.3 | 95.2 | 103 | 103 | 95.9 | 101 | 98.5
13 | COc1ccccc1N1CCN(CCCCN2C(=O)CCC2=O)CC1 [MM77] | 0 | 0 | – | 0 | 0 | > 10 | > 10 | > 10 | > 10 | 92.4 | 102 | 83.8 | 102 | 106 | 104 | 100 | 96.6 | 114 | 107 | – | – | – | – | – | 94.5 | 93.4 | 92.7 | 94 | 110 | 100 | 101 | 94.9 | 106 | 97.2
14 | O=C1OC2(c3ccccc31)c1cc(I)c(O)c(I)c1Oc1c2cc(I)c(O)c1I [erythrosine] | 3.6 | 4.4 | 2.2 | 3.7 | 3.9 | – | – | – | – | 99.2 | 98.7 | 102 | 93.8 | 51.9 | 102 | 104 | 113 | 86.6 | 53.6 | 104 | 109 | 97.6 | 103 | 53.4 | 87.3 | 96.4 | 98.7 | 81.6 | 64.5 | 94.6 | 91.7 | 97 | 88.7 | 57.3
15 | COCc1nnc(N2CC(Oc3ccc(F)cc3Cl)C2)n1-c1ccc(OC)nc1 | 0 | 0 | – | 0 | 0 | > 10 | > 10 | > 10 | > 10 | 88.5 | 105 | 102 | 105 | 97.5 | 92.8 | 103 | 101 | 104 | 113 | – | – | – | – | – | 97.8 | 93.1 | 101 | 90.9 | 106 | 93.3 | 93.6 | 95.6 | 103 | 97.4
16 | CC(C)C[C@@H](C(=O)N[C@@H](Cc1ccc(OCc2ccccc2)cc1)C(=O)NC(C)(C)C)N(C)Cc1ccc(C(C)(C)C)cc1 | 0 | 0 | 1.6 | 0 | 0.1 | > 10 | > 10 | > 10 | > 10 | 88.8 | 95.9 | 94.1 | 100 | 87.5 | 93.4 | 105 | 97.5 | 111 | 87.8 | 107 | 101 | 93.5 | 99.1 | 68 | 103 | 103 | 106 | 97.8 | 95.7 | 97.4 | 101 | 97.5 | 101 | 85.5
17 | CCc1cccc(CC)c1NC1=NCCN1 [ST-91] | 0 | 0 | – | 0 | 0 | > 10 | > 10 | > 10 | > 10 | 102 | 101 | 96.2 | 93.4 | 100 | 104 | 90.2 | 96.6 | 89.6 | 115 | – | – | – | – | – | 98.9 | 97.1 | 102 | 98.3 | 93.5 | 103 | 98.7 | 104 | 94.8 | 99

From the supplement of paper PMC13380429
